Patent US4296112A, “Cephalosporins” (Mitsui Toatsu Chemicals, Inc., priority 1979, dated 1981)
Read-outs that look alike come from different tables or passages of the source.

Columns and labels:
[1] = test system: Pseudomonas aeruginosa (NCTC 7244); assay: Minimum bactericidal concentration (Referential Example 2, Table 2); assay type: cell-based; conditions: NCTC7244, 18 h, subculture on HIA medium
Procedure: (§1) The compounds obtained in Synthesis Examples 1 to 4 were tested in the following manner.
(§2) A suspension of Pseudomonas aeruginosa (NCTC 7244) cultivated at 37° C. for 18 hours in a heart infusion broth medium (HIB medium) in a final amount of 10^5, 10^6 and 10^7 cells/ml in an HIB medium containing each of the test compounds which was obtained in the same way as in Referential Example 1 except that the maximum concentration of the test compound was 200 μg/ml. The bacterial strain was cultivated at 37° C. for 18 hours, and the turbidity of the culture broth was evaluated with the naked eye. The minimum concentration of the test compound at which no turbidity was noted was defined as MIC.
The growth of the bacterial strain was evaluated.

[2] = test system: Pseudomonas aeruginosa (IFO-3901); assay: MIC, agar plate dilution (Referential Example 1, Table 1); assay type: cell-based; conditions: IFO3901, HIA medium plate, 37° C., 18 hours, read-out: Minimum growth inhibitory concentration (MIC)
Procedure: (§3) The antibacterial activities of the cephalosporins of this invention were measured using the sodium salts of the compounds obtained in Synthesis Examples 1 and 2. The procedure and the results are shown in Referential Example 1.
(§4) Carbenicillin sodium salt (CB-PC) and cephazoline sodum salt (CEZ) were used as controls.
(§5) The antibacterial activities of the test compounds against various Gram-positive and Gram-negative bacteria were determined in a customary manner by the minimum growth inhibitory concentration method (MIC method).
(§6) The experimental procedure was as follows:
(§7) A commercially available heart infusion agar medium (to be abbreviated HIA medium) was used as an assay medium, and a commercially available trypto-soy bouillon medium (to be abbreviated TSB) was used as a medium for the growth of test bacterial strains.
(§8) The test compound was diluted with the melted HIA medium to 100 μg/ml as a maximum concentration, and then serially diluted double. The dilutions were poured into sterilized Petri dishes respectively and allowed to cool and solidify to prepare plates containing the test compound.
(§9) The test bacterial strain was cultivated at 37° C. for 18 to 24 hours in the TSB medium. The culture broth was diluted to 50 to 500 times with a freshly prepared TSB culture medium, and one platinum loopful of the dilution was inoculated in each of the plates containing the test compound.

[3] = test system: Klebsiella pneumonia (F-5089); assay: as above; assay type: cell-based; conditions: Klebsiella pneumoniae; HIA medium plate, 37° C., 18 hours; read-out: Minimum growth inhibitory concentration (MIC)
Procedure: as §3, §4, §5, §6, §7, §8, §9

[4] = test system: Pseudomonas aeruginosa (NCTC 7244); assay: as above; assay type: cell-based; conditions: NCTC7244, HIA medium plate, 37° C., 18 hours, read-out: Minimum growth inhibitory concentration (MIC)
Procedure: as §3, §4, §5, §6, §7, §8, §9

Shigella flexneri (K-A) = assay: as above; assay type: cell-based; conditions: HIA medium plate, 37° C., 18 hours, read-out: Minimum growth inhibitory concentration (MIC)
Procedure: as §3, §4, §5, §6, §7, §8, §9

Proteus vulgaris (OX-19) = assay: as above; assay type: cell-based; conditions: read-out: Minimum growth inhibitory concentration (MIC)
Procedure: as §3, §4, §5, §6, §7, §8, §9

[5] = test system: Pseudomonas aeruginosa (ATCC 10145); assay: as above; assay type: cell-based; conditions: ATCC10145, HIA medium plate, 37° C., 18 hours, read-out: Minimum growth inhibitory concentration (MIC)
Procedure: as §3, §4, §5, §6, §7, §8, §9

[6] = test system: Pseudomonas aeruginosa (395); assay: as above; assay type: cell-based; conditions: HIA medium plate, 37° C., 18 hours, read-out: Minimum growth inhibitory concentration (MIC)
Procedure: as §3, §4, §5, §6, §7, §8, §9

Proteus rettgeri (T-2) = assay: as above; assay type: cell-based; conditions: Providencia rettgeri; HIA medium plate, 37° C., 18 hours; read-out: Minimum growth inhibitory concentration (MIC)
Procedure: as §3, §4, §5, §6, §7, §8, §9

[7] = test system: Streptococcus faecalis (Hoshi); assay: as above; assay type: cell-based; conditions: Enterococcus faecalis; HIA medium plate, 37° C., 18 hours; read-out: Minimum growth inhibitory concentration (MIC)
Procedure: as §3, §4, §5, §6, §7, §8, §9

[8] = test system: Escherichia coli (14H114); assay: as above; assay type: cell-based; conditions: HIA medium plate, 37° C., 18 hours, read-out: Minimum growth inhibitory concentration (MIC)
Procedure: as §3, §4, §5, §6, §7, §8, §9

[9] = test system: Enterobacter cloacae (D-49); assay: as above; assay type: cell-based; conditions: HIA medium plate, 37° C., 18 hours, read-out: Minimum growth inhibitory concentration (MIC)
Procedure: as §3, §4, §5, §6, §7, §8, §9

[10] = test system: Klebsiella pneumoniae (ATCC 10031); assay: as above; assay type: cell-based; conditions: read-out: Minimum growth inhibitory concentration (MIC)
Procedure: as §3, §4, §5, §6, §7, §8, §9

[11] = test system: Citrobacter freundii (F-34); assay: as above; assay type: cell-based; conditions: HIA medium plate, 37° C., 18 hours, read-out: Minimum growth inhibitory concentration (MIC)
Procedure: as §3, §4, §5, §6, §7, §8, §9

[12] = test system: Staphylococcus aureus (FDA 209P); assay: as above; assay type: cell-based; conditions: FDA209P, read-out: Minimum growth inhibitory concentration (MIC)
Procedure: as §3, §4, §5, §6, §7, §8, §9

Escherichia coli (K-12) = assay: as above; assay type: cell-based; conditions: HIA medium plate, 37° C., 18 hours, read-out: Minimum growth inhibitory concentration (MIC)
Procedure: as §3, §4, §5, §6, §7, §8, §9

[13] = test system: Serratia marcescens (S-33); assay: as above; assay type: cell-based; conditions: HIA medium plate, 37° C., 18 hours, read-out: Minimum growth inhibitory concentration (MIC)
Procedure: as §3, §4, §5, §6, §7, §8, §9

Proteus morganii (C-39) = assay: as above; assay type: cell-based; conditions: Morganella morganii; HIA medium plate, 37° C., 18 hours; read-out: Minimum growth inhibitory concentration (MIC)
Procedure: as §3, §4, §5, §6, §7, §8, §9

Escherichia coli (26RO3) = assay: as above; assay type: cell-based; conditions: HIA medium plate, 37° C., 18 hours, read-out: Minimum growth inhibitory concentration (MIC)
Procedure: as §3, §4, §5, §6, §7, §8, §9

[14] = test system: Staphylococcus aureus (Y-8); assay: as above; assay type: cell-based; conditions: HIA medium plate, 37° C., 18 hours, read-out: Minimum growth inhibitory concentration (MIC)
Procedure: as §3, §4, §5, §6, §7, §8, §9

[15] = test system: Klebsiella pneumoniae (B-172); assay: as above; assay type: cell-based; conditions: HIA medium plate, 37° C., 18 hours, read-out: Minimum growth inhibitory concentration (MIC)
Procedure: as §3, §4, §5, §6, §7, §8, §9

[16] = test system: Pseudomonas aeruginosa (F1629); assay: as above; assay type: cell-based; conditions: HIA medium plate, 37° C., 18 hours, read-out: Minimum growth inhibitory concentration (MIC)
Procedure: as §3, §4, §5, §6, §7, §8, §9

[17] = test system: Enterobacter aerogenes (IFO 3320); assay: as above; assay type: cell-based; conditions: Klebsiella aerogenes, read-out: Minimum growth inhibitory concentration (MIC)
Procedure: as §3, §4, §5, §6, §7, §8, §9

[18] = test system: Klebsiella pneumoniae (Horino); assay: as above; assay type: cell-based; conditions: HIA medium plate, 37° C., 18 hours, read-out: Minimum growth inhibitory concentration (MIC)
Procedure: as §3, §4, §5, §6, §7, §8, §9

Escherichia coli (NIHJ) = assay: as above; assay type: cell-based; conditions: HIA medium plate, 37° C., 18 hours, read-out: Minimum growth inhibitory concentration (MIC)
Procedure: as §3, §4, §5, §6, §7, §8, §9

[19] = test system: Pseudomonas aeruginosa (718); assay: as above; assay type: cell-based; conditions: HIA medium plate, 37° C., 18 hours, read-out: Minimum growth inhibitory concentration (MIC)
Procedure: as §3, §4, §5, §6, §7, §8, §9

[20] = test system: Salmonella enteritidis (KB-21); assay: as above; assay type: cell-based; conditions: Salmonella enterica, 18 h, read-out: Minimum growth inhibitory concentration (MIC)
Procedure: as §3, §4, §5, §6, §7, §8, §9

[21] = test system: Pseudomonas aeruginosa (S-1); assay: as above; assay type: cell-based; conditions: HIA medium plate, 37° C., 18 hours, read-out: Minimum growth inhibitory concentration (MIC)
Procedure: as §3, §4, §5, §6, §7, §8, §9

[22] = test system: Bacillus cereus (IAM 1792); assay: as above; assay type: cell-based; conditions: IAM1792, HIA medium plate, 37° C., 18 hours, read-out: Minimum growth inhibitory concentration (MIC)
Procedure: as §3, §4, §5, §6, §7, §8, §9

[23] = test system: Pseudomonas maltophilia (F-6257); assay: as above; assay type: cell-based; conditions: Stenotrophomonas maltophilia; HIA medium plate, 37° C., 18 hours; read-out: Minimum growth inhibitory concentration (MIC)
Procedure: as §3, §4, §5, §6, §7, §8, §9

[24] = test system: Pseudomonas aeruginosa (NCTC 7244); assay: MIC in HIB medium by turbidity (Referential Example 2, Table 2); assay type: cell-based; conditions: NCTC7244, 18 h, 37° C.
Procedure: as §1, §2

Pseudomonas aeruginosa = conditions: background art, in words; cited from earlier work
[25] = test system: Gram-positive or Gram-negative bacteria; conditions: background art, in words; cited from earlier work
[26] = HIA medium plate, 37° C., 18 hours

SMILES	MBC ([1]; 10^5 cells/ml inoculated) [µg/mL]	MBC ([1]; 10^6 cells/ml inoculated) [µg/mL]	MBC ([1]; 10^7 cells/ml inoculated) [µg/mL]	MIC [2] [µg/mL]	MIC [3] [µg/mL]	MIC [4] [µg/mL]	MIC (Shigella flexneri (K-A)) [µg/mL]	MIC [5] [µg/mL]	MIC [6] [µg/mL]	MIC (Proteus rettgeri (T-2)) [µg/mL]	MIC [7] [µg/mL]	MIC [8] [µg/mL]	MIC [9] [µg/mL]	MIC [11] [µg/mL]	MIC (Escherichia coli (K-12)) [µg/mL]	MIC [13] [µg/mL]	MIC (Proteus morganii (C-39)) [µg/mL]	MIC (Escherichia coli (26RO3)) [µg/mL]	MIC [14] [µg/mL]	MIC [15] [µg/mL]	further results
CC1(C)S[C@@H]2[C@H](NC(=O)C(C(=O)O)c3ccccc3)C(=O)N2[C@H]1C(=O)O (stereo partly drawn) [CB-PC, disodium-α-carboxybenzyl penicillin]	100	100	> 200	100	50	100	1.56	> 100	25	3.13	50	> 100	> 100	3.13	6.25	6.25	6.25	3.13	12.5	25	MIC (Proteus vulgaris (OX-19); [26]): 6.25 µg/mL; MIC ([10]; ATCC10031, HIA medium plate, 37° C., 18 hours): > 100 µg/mL; MIC ([12]; 18 h): 1.56 µg/mL; MIC [16]: > 100 µg/mL; MIC ([17]; IFO3320, 18 h): 1.56 µg/mL; MIC [18]: 100 µg/mL; MIC (Escherichia coli (NIHJ)): 6.25 µg/mL; MIC [19]: > 100 µg/mL; MIC [20]: 1.56 µg/mL; MIC [21]: 25 µg/mL; MIC [22]: 100 µg/mL; MIC [23]: 25 µg/mL; MIC ([24]; 10^5 cells/ml inoculated): 50 µg/mL; MIC ([24]; 10^6 cells/ml inoculated): 100 µg/mL; MIC ([24]; 10^7 cells/ml inoculated): 200 µg/mL; activity on Pseudomonas aeruginosa (Pseudomonas aeruginosa): low activity on Pseudomonas aeruginosa; effectiveness for infections caused by Pseudomonas aeruginosa (Pseudomonas aeruginosa): ineffective for Pseudomonas aeruginosa-induced infections of difficultly curable nature
Cc1nnc(SCC2=C(C(=O)O)N3C(=O)[C@@H](NC(=O)Cn4cnnn4)[C@H]3SC2)s1 [CEZ, sodium 7-[1-(1H)-tetrazoylacetamido]-3-[2-(5-methyl-1,3,4thiadiazoyl)-thiomethyl]-Δ^3-cephem-4-carboxylate]	> 200	> 200	> 200	> 100	3.13	> 100	1.56	> 100	> 100	12.5	25	6.25	> 100	50	3.13	> 100	> 100	50	0.78	3.13	MIC (Proteus vulgaris (OX-19); 18 h): 1.56 µg/mL; MIC ([10]; ATCC10031, 18 h): 1.56 µg/mL; MIC [12, 26]: 0.2 µg/mL; MIC [16]: > 100 µg/mL; MIC ([17]; IFO3320, HIA medium plate, 37° C., 18 hours): 3.13 µg/mL; MIC [18]: 3.13 µg/mL; MIC (Escherichia coli (NIHJ)): 3.13 µg/mL; MIC [19]: > 100 µg/mL; MIC [20]: 1.56 µg/mL; MIC [21]: > 100 µg/mL; MIC [22]: 100 µg/mL; MIC [23]: > 100 µg/mL; MIC ([24]; 10^5 cells/ml inoculated): > 200 µg/mL; MIC ([24]; 10^6 cells/ml inoculated): > 200 µg/mL; MIC ([24]; 10^7 cells/ml inoculated): > 200 µg/mL; effectiveness for infections caused by Pseudomonas aeruginosa (Pseudomonas aeruginosa): ineffective for infections caused by Pseudomonas aeruginosa; effectiveness for infections caused by Gram-positive or Gram-negative bacteria [25]: effective as therapeutic agents for infections caused by Gram-positive or Gram-negative bacteria
